Columns and labels:
[1] = molecular target: T1, human sphingosine-1-phosphate receptor 1 (S1P1) (Homo sapiens (Human), UniProt P21453); test: Inhibition of cAMP production (HTRF cAMP HiRange), S1P1 CHO-K1 cells; assay type: cell-based; settings: for hS1P1 cAMP pEC50: inhibition of cAMP production, S1P1 CHO-K1 cells; for Emax: CHO-K1, efficacy (SPAN) normalized to fingolimod, read-out: hS1P1 cAMP SPAN
Method in brief: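 CHO-K1 cells stably co-expressing human S1P1 (C-terminal Prolink tag) and EA-β-arrestin2 were grown in AssayComplete Media 6 at 37° C. and 5% CO2, plated, and incubated overnight. Agonist-driven inhibition of intracellular cAMP was read by TR-FRET with the HTRF cAMP HiRange kit on a PheraStar reader. Potency is pEC50, and efficacy (SPAN) is normalized to fingolimod.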
Target sequence in this assay (P21453 whole entry, looked up): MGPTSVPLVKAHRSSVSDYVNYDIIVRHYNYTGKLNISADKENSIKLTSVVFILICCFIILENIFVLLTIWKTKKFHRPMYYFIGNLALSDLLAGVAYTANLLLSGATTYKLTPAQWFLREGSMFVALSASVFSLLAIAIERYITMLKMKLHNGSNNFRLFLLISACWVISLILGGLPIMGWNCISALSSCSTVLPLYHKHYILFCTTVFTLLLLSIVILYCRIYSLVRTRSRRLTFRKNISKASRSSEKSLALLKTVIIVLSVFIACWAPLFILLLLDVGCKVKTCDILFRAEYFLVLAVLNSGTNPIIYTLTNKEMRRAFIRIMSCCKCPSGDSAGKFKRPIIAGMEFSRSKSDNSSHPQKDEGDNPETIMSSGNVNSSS

[2] = molecular target: T1, human sphingosine-1-phosphate receptor 1 (S1P1); test: β-Arrestin2 recruitment assay (PathHunter), S1P1 CHO-K1 cells; assay type: cell-based; settings: for hS1P1 B-arrestin2 pEC50: β-arrestin2 recruitment, S1P1 CHO-K1 cells; for Emax: CHO-K1, efficacy (SPAN) normalized to fingolimod, read-out: hS1P1 B-arrestin2 SPAN
Method in brief: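 Enzyme-fragment complementation read-out: agonist-driven β-arrestin2 binding to ProLink-tagged human S1P1 in stable CHO-K1 cells restores β-galactosidase, measured 1 h at room temperature after a 60 min 37° C. compound incubation. Potency as pEC50, efficacy relative to fingolimod (SPAN).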
Target sequence in this assay (P21453 whole entry, looked up): as above
Target sequence in this assay (P32121 whole entry partner, looked up): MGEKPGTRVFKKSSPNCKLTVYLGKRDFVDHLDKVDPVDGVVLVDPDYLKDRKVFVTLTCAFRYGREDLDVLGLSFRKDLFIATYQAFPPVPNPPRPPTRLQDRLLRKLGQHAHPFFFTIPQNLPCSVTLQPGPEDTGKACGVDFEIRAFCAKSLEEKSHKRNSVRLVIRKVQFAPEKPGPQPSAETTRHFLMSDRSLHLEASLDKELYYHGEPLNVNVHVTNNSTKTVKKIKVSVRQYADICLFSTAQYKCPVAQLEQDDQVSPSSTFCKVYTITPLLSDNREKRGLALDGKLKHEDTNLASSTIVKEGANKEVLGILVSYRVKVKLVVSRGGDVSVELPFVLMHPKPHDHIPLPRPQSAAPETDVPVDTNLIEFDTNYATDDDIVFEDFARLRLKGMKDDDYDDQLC

Structure (SMILES) | hS1P1 cAMP pEC50 [1] | hS1P1 B-arrestin2 pEC50 [2] | Emax [1] | Emax [2]
CC(C)n1nnc2cc(-c3noc(-c4ncccc4O)n3)ccc21 [Compound 602, 2-{3-[1-(propan-2-yl)-1H-1,2,3-benzotriazol-5-yl]-1,2,4-oxadiazol-5-yl}pyridin-3-ol] | <6.5 | <5 | – | –
CCC1(CC)CC(=O)c2cc(-c3nc(-c4cncc(S(N)(=O)=O)c4)no3)ccc2O1 [Compound 603, 5-(5-(2,2-diethyl-4-oxochroman-6-yl)-1,2,4-oxadiazol-3-yl)pyridine-3-sulfonamide] | >6.5 | >5 | – | –
CCC1(CC)CC(=O)c2cc(-c3nc(-c4sccc4OC)no3)ccc2O1 [Compound 604, 2,2-diethyl-6-(3-(3-methoxythiophen-2-yl)-1,2,4-oxadiazol-5-yl)chroman-4-one] | >6.5 | >5 | – | –
COc1ccncc1-c1nc(-c2ccc3c(c2)nnn3C(C)C)no1 [Compound 605, 3-(1-isopropyl-1H-benzo[d][1,2,3]triazol-5-yl)-5-(4-methoxypyridin-3-yl)-1,2,4-oxadiazole] | >6.5 | >5 | > 75% | > 75%
Cc1ccccc1-c1nc(-c2ccc3c(c2)nnn3C(C)(C)CO)no1 [Compound 609, 2-methyl-2-(5-(5-(o-tolyl)-1,2,4-oxadiazol-3-yl)-1H-benzo[d][1,2,3]triazol-1-yl)propan-1-ol] | >6.5 | <5 | – | –
COc1ccc(-c2nc(-c3ccc4c(c3)nnn4C(C)(C)CO)no2)c(C)c1 [Compound 610, 2-(5-(5-(4-methoxy-2-methylphenyl)-1,2,4-oxadiazol-3-yl)-1H-benzo[d][1,2,3]triazol-1-yl)-2-methylpropan-1-ol] | <6.5 | <5 | – | –
Cc1ccsc1-c1nc(-c2ccc3c(c2)nnn3C(C)(C)CO)no1 [Compound 611, 2-methyl-2-(5-(5-(3-methylthiophen-2-yl)-1,2,4-oxadiazol-3-yl)-1H-benzo[d][1,2,3]triazol-1-yl)propan-1-ol] | >6.5 | >5 | < 75% | < 75%
COc1cccnc1-c1nc(-c2ccc3c(c2)nnn3C(C)C)no1 [Compound 612, 3-(1-isopropyl-1H-benzo[d][1,2,3]triazol-5-yl)-5-(3-methoxypyridin-2-yl)-1,2,4-oxadiazole] | >6.5 | >5 | < 75% | > 75%
Cc1ccncc1-c1noc(-c2ccc3c(c2)NC(=O)CN3)n1 [Compound 613, 7-[3-(4-methylpyridin-3-yl)-1,2,4-oxadiazol-5-yl]-1,2,3,4-tetrahydroquinoxalin-2-one] | <6.5 | <5 | – | –
COc1ccccc1-c1noc(-c2ccc3c(c2)NC(=O)CN3)n1 [Compound 614, 7-[3-(2-methoxyphenyl)-1,2,4-oxadiazol-5-yl]-1,2,3,4-tetrahydroquinoxalin-2-one] | <6.5 | <5 | – | –
CCC1(CC)CC(=O)c2cc(-c3nc(-c4cnccn4)no3)ccc2O1 [Compound 617, 2,2-diethyl-6-(3-(pyrazin-2-yl)-1,2,4-oxadiazol-5-yl)chroman-4-one] | <6.5 | <5 | – | –
COc1ncccc1-c1noc(-c2ccc3c(c2)nnn3C(C)C)n1 [Compound 619, 5-(1-isopropyl-1H-benzo[d][1,2,3]triazol-5-yl)-3-(2-methoxypyridin-3-yl)-1,2,4-oxadiazole] | >6.5 | >5 | – | –
CCC1(CC)CC(=O)c2cc(-c3nc(-c4cncnc4)no3)ccc2O1 [Compound 620, 2,2-diethyl-6-(3-(pyrimidin-5-yl)-1,2,4-oxadiazol-5-yl)chroman-4-one] | >6.5 | >5 | – | –
CCC1(CC)CC(=O)c2cc(-c3nc(-c4cccnn4)no3)ccc2O1 [Compound 621, 2,2-diethyl-6-(3-(pyridazin-3-yl)-1,2,4-oxadiazol-5-yl)chroman-4-one] | <6.5 | <5 | – | –
CCC1(CC)CC(=O)c2cc(-c3nc(-c4ccc5ncoc5c4)no3)ccc2O1 [Compound 622, 6-(3-(benzo[d]oxazol-6-yl)-1,2,4-oxadiazol-5-yl)-2,2-diethylchroman-4-one] | >6.5 | <5 | – | –
COc1ccccc1-c1nc(-c2ccc3c(c2)nnn3C(C)(C)CO)no1 [Compound 623, 2-(5-(5-(2-methoxyphenyl)-1,2,4-oxadiazol-3-yl)-1H-benzo[d][1,2,3]triazol-1-yl)-2-methylpropan-1-ol] | <6.5 | <5 | > 75% | > 75%
CCc1ccccc1-c1nc(-c2ccc3c(c2)nnn3C(C)(C)CO)no1 [Compound 624, 2-(5-(5-(2-ethylphenyl)-1,2,4-oxadiazol-3-yl)-1H-benzo[d][1,2,3]triazol-1-yl)-2-methylpropan-1-ol] | <6.5 | <5 | < 75% | > 75%
Cc1ccncc1-c1nc(-c2ccc3c(c2)nnn3C(C)(C)CO)no1 [Compound 625, 2-methyl-2-(5-(5-(4-methylpyridin-3-yl)-1,2,4-oxadiazol-3-yl)-1H-benzo[d][1,2,3]triazol-1-yl)propan-1-ol] | <6.5 | <5 | < 75% | < 75%
CC(C)(CO)n1nnc2cc(-c3noc(-c4ccncc4C(F)(F)F)n3)ccc21 [Compound 626, 2-methyl-2-(5-(5-(3-(trifluoromethyl)pyridin-4-yl)-1,2,4-oxadiazol-3-yl)-1H-benzo[d][1,2,3]triazol-1-yl)propan-1-ol] | <6.5 | <5 | – | –
COc1cccnc1-c1noc(-c2ccc3c(c2)nnn3C(C)C)n1 [Compound 627, 5-(1-isopropyl-1H-benzo[d][1,2,3]triazol-5-yl)-3-(3-methoxypyridin-2-yl)-1,2,4-oxadiazole] | <6.5 | <5 | > 75% | > 75%
CC(C)Nc1ccc(-c2ncc(-c3ccc4[nH]c(=O)[nH]c4c3)cn2)cc1C#N [Compound 628, 2-(isopropylamino)-5-(5-(2-oxo-2,3-dihydro-1H-benzo[d]imidazol-5-yl)pyrimidin-2-yl)benzonitrile] | >6.5 | >5 | – | –
O=C1CNc2ccc(-c3nc(-c4cccnc4)no3)cc2N1 [Compound 629, 7-[3-(pyridin-3-yl)-1,2,4-oxadiazol-5-yl]-1,2,3,4-tetrahydroquinoxalin-2-one] | <6.5 | <5 | – | –
CCCC1CC(=O)c2ccc(-c3nc(-c4cccnc4)no3)cc2O1 (stereo not shown) [Compound 630, 2-propyl-7-[3-(pyridin-3-yl)-1,2,4-oxadiazol-5-yl]-3,4-dihydro-2H-1-benzopyran-4-one] | <6.5 | <5 | – | –
CCCCC1CC(=O)c2ccc(-c3nc(-c4cccnc4)no3)cc2O1 (stereo not shown) [Compound 633, 2-butyl-7-[3-(pyridin-3-yl)-1,2,4-oxadiazol-5-yl]-3,4-dihydro-2H-1-benzopyran-4-one] | <6.5 | <5 | – | –
Cn1cnc2ccc(-c3nnc(-c4ccc(NC(C)(C)CO)c(C#N)c4)o3)cc21 [Compound 634, 2-[(1-hydroxy-2-methylpropan-2-yl)amino]-5-[5-(1-methyl-1H-1,3-benzodiazol-6-yl)-1,3,4-oxadiazol-2-yl]benzonitrile] | <6.5 | <5 | – | –
Cn1cnc2ccc(-c3nnc(-c4ccc(NCC(F)(F)CO)c(C#N)c4)o3)cc21 [Compound 635, 2-[(2,2-difluoro-3-hydroxypropyl)amino]-5-[5-(1-methyl-1H-1,3-benzodiazol-6-yl)-1,3,4-oxadiazol-2-yl]benzonitrile] | >6.5 | >5 | – | –
CC(C)Nc1ccc(-c2nnc(-c3ccc4c(c3)C(=O)NCC4)o2)cc1C#N [Compound 638, 5-[5-(1-oxo-1,2,3,4-tetrahydroisoquinolin-7-yl)-1,3,4-oxadiazol-2-yl]-2-[(propan-2-yl)amino]benzonitrile] | >6.5 | <5 | – | –
CCC1(CC)CC(=O)c2cc(-c3nc(-c4ccncn4)no3)ccc2O1 [Compound 639, 2,2-diethyl-6-(3-(pyrimidin-4-yl)-1,2,4-oxadiazol-5-yl)chroman-4-one] | <6.5 | <5 | – | –
CCC1(CC)CC(=O)c2cc(-c3nc(-c4ncccn4)no3)ccc2O1 [Compound 640, 2,2-diethyl-6-(3-(pyrimidin-2-yl)-1,2,4-oxadiazol-5-yl)chroman-4-one] | <6.5 | <5 | – | –
Cc1nccnc1-c1nc(-c2ccc3c(c2)nnn3C(C)(C)CO)no1 [Compound 641, 2-methyl-2-(5-(5-(3-methylpyrazin-2-yl)-1,2,4-oxadiazol-3-yl)-1H-benzo[d][1,2,3]triazol-1-yl)propan-1-ol] | <6.5 | <5 | < 75% | < 75%
